Reference: ChEMBL document CHEMBL5445981, “Affinity On-target Cellular Literature for EUbOPEN Chemogenomic Library” (2024)

Assays:
[1] = target: Cyclin-dependent kinase 7 (Homo sapiens, UniProt P50613); experiment: Affinity On-target Cellular interaction: (Radioactive in vitro kinase assays (from cellular wild-type CDK7 immunoprecipitated in HeLa cells)) EUB0001635a CDK7; assay type: cell-based; set-up: mode of action Covalent inhibitor, recommended concentration 1 uM
[2] = target: Chromatin remodeling regulator CECR2 (Homo sapiens, UniProt Q9BXF3); experiment: Affinity On-target Cellular interaction: (NanoBRET assay (NL-FL […] in HEK293 cells)) EUB0000233b CECR2; assay type: cell-based; set-up: mode of action Inhibitor, recommended concentration 1 uM
[3] = target: Nucleosome-remodeling factor subunit BPTF (Homo sapiens, UniProt Q12830); experiment: Affinity On-target Cellular interaction: (NanoBRET assay (NL-BPTF BD in HEK293 cells)) EUB0000233b BPTF; assay type: cell-based; set-up: mode of action Inhibitor, recommended concentration 1 uM
[4] = target: Cyclin-G-associated kinase (Homo sapiens, UniProt O14976); experiment: Affinity On-target Cellular interaction: (NanoBRET assay (HEK293T cells)) EUB0000229b GAK; assay type: cell-based, HEK-293T; set-up: mode of action Negative control for SGC-GAK-1, recommended concentration 1 uM
[5] = target: Calcium/calmodulin-dependent protein kinase type 1D (Homo sapiens, UniProt Q8IU85); experiment: Affinity On-target Cellular interaction: (NanoBRET assay (in HEK293T cells)) EUB0000878a CAMK1D; assay type: cell-based, HEK-293T; set-up: mode of action Inhibitor, recommended concentration 100 nM
[6] = target: Dual specificity tyrosine-phosphorylation-regulated kinase 2 (Homo sapiens, UniProt Q92630); experiment: Affinity On-target Cellular interaction: (NanoBRET assay (in HEK293T cells)) EUB0000008b DYRK2; assay type: cell-based, HEK-293T; set-up: mode of action Inhibitor, recommended concentration 1 uM
[7] = target: Dual specificity protein kinase CLK4 (Homo sapiens, UniProt Q9HAZ1); experiment: Affinity On-target Cellular interaction: (NanoBRET assay (in HEK293T cells)) EUB0000008b CLK4; assay type: cell-based, HEK-293T; set-up: mode of action Inhibitor, recommended concentration 1 uM
[8] = target: Dual specificity tyrosine-phosphorylation-regulated kinase 1A (Homo sapiens, UniProt Q13627); experiment: Affinity On-target Cellular interaction: (NanoBRET assay (in HEK293T cells)) EUB0000008b DYRK1A; assay type: cell-based, HEK-293T; set-up: mode of action Inhibitor, recommended concentration 1 uM
[9] = target: Dual specificity protein kinase CLK1 (Homo sapiens, UniProt P49759); experiment: Affinity On-target Cellular interaction: (NanoBRET assay (HEK293T cells)) EUB0001049a CLK1; assay type: cell-based, HEK-293T; set-up: mode of action Negative control for SGC-CLK-1 (UNC-CAF-170 ), recommended concentration 1 uM
[10] = target: Dual specificity protein kinase CLK2 (Homo sapiens, UniProt P49760); experiment: Affinity On-target Cellular interaction: (NanoBRET assay (HEK293T cells)) EUB0001049a CLK2; assay type: cell-based, HEK-293T; set-up: mode of action Negative control for SGC-CLK-1 (UNC-CAF-170 ), recommended concentration 1 uM
[11] = target: Histone-arginine methyltransferase CARM1 (Homo sapiens, UniProt Q86X55); experiment: Affinity On-target Cellular interaction: (Western Blot (dimethylation of BAF155, BAF155me2a/BAF155, in HEK293T cells)) EUB0000255b CARM1; assay type: cell-based, HEK-293T; set-up: mode of action Negative control for TP-064, recommended concentration 1 uM
[12] = target: SRSF protein kinase 1 (Homo sapiens, UniProt Q96SB4)
[13] = target: SRSF protein kinase 2 (Homo sapiens, UniProt P78362)
[14] = target: Histone-lysine N-methyltransferase NSD3 (Homo sapiens, UniProt Q9BZ95); experiment: Affinity On-target Cellular interaction: (NanoBRET assay (Nluc-NSD3-PWWP1 fusion protein in U2OS cells)) EUB0000270b NSD3; assay type: cell-based; set-up: mode of action Negative control for BI-9321, recommended concentration 1 uM
[15] = target: Serine/threonine-protein kinase 17A (Homo sapiens, UniProt Q9UEE5)
[16] = target: T1, Casein kinase I isoform delta (Homo sapiens, UniProt P48730); experiment: Affinity On-target Cellular interaction: (NanoBRET asssay (HEK293T cells)) EUB0001201a CSNK1D; assay type: cell-based, HEK-293T; set-up: mode of action Negative control for MU1742, recommended concentration 1 uM
[17] = target: T2, Casein kinase I isoform epsilon (Homo sapiens, UniProt P49674); experiment: Affinity On-target Cellular interaction: (NanoBRET asssay (HEK293T cells)) EUB0001201a CSNK1E; assay type: cell-based, HEK-293T; set-up: mode of action Negative control for MU1742, recommended concentration 1 uM
[18] = target: Serine/threonine-protein kinase SIK3 (Homo sapiens, UniProt Q9Y2K2); experiment: Affinity On-target Cellular interaction: (NanoBRET assay (HEK293T cells)) EUB0001479a SIK3; assay type: cell-based, HEK-293T; set-up: mode of action Negative control for MRIA9, recommended concentration 1 uM
[19] = target: Serine/threonine-protein kinase SIK1 (Homo sapiens, UniProt P57059); experiment: Affinity On-target Cellular interaction: (NanoBRET assay (HEK293T cells)) EUB0001479a SIK1; assay type: cell-based, HEK-293T; set-up: mode of action Negative control for MRIA9, recommended concentration 1 uM
[20] = target: Serine/threonine-protein kinase SIK2 (Homo sapiens, UniProt Q9H0K1); experiment: Affinity On-target Cellular interaction: (NanoBRET assay (HEK293T cells)) EUB0001479a SIK2; assay type: cell-based, HEK-293T; set-up: mode of action Negative control for MRIA9, recommended concentration 1 uM
[21] = target: T2, Casein kinase I isoform epsilon; experiment: Affinity On-target Cellular interaction: (NanoBRET asssay (HEK293T cells)) EUB0001205a CSNK1E; assay type: cell-based, HEK-293T; set-up: mode of action Inhibitor, recommended concentration 1 uM
[22] = target: Casein kinase I isoform alpha (Homo sapiens, UniProt P48729); experiment: Affinity On-target Cellular interaction: (NanoBRET asssay (HEK293T cells)) EUB0001205a CSNK1A1; assay type: cell-based, HEK-293T; set-up: mode of action Inhibitor, recommended concentration 1 uM
[23] = target: T1, Casein kinase I isoform delta; experiment: Affinity On-target Cellular interaction: (NanoBRET asssay (HEK293T cells)) EUB0001205a CSNK1D; assay type: cell-based, HEK-293T; set-up: mode of action Inhibitor, recommended concentration 1 uM
[24] = target: T3, Inhibitor of nuclear factor kappa-B kinase subunit beta (Homo sapiens, UniProt O14920); experiment: Affinity On-target Cellular interaction: (NanoBRET assay (HEK293T cells)) EUB0001576a IKBKB; assay type: cell-based, HEK-293T; set-up: mode of action Negative control for BI 605906, recommended concentration 1 uM
[25] = target: T3, Inhibitor of nuclear factor kappa-B kinase subunit beta; experiment: Affinity On-target Cellular interaction: (Cellular assay (inhibition of phospho-IKBKB in HeLa cells)) EUB0001492b IKBKB; assay type: cell-based; set-up: mode of action Inhibitor, recommended concentration 1 uM
[26] = target: Receptor tyrosine-protein kinase erbB-2 (Homo sapiens, UniProt P04626); experiment: Affinity On-target Cellular interaction: (Western Blot (EGF-induced autophosphorylation of the chimera EGFR extracellular domain and erbB2 intracellular domain in NIH 3T3 cells)) EUB0000595a ERBB2; assay type: cell-based; set-up: mode of action Inhibitor, recommended concentration 1 uM; settings: nih3t3
[27] = target: RAC-beta serine/threonine-protein kinase (Homo sapiens, UniProt P31751); experiment: Affinity On-target Cellular interaction: (NanoBRET assay (HEK293T cells)) EUB0001563a AKT2; assay type: cell-based; set-up: mode of action Negative control for Borussertib, recommended concentration 1 uM; settings: hek-293t
[28] = target: RAC-alpha serine/threonine-protein kinase (Homo sapiens, UniProt P31749); experiment: Affinity On-target Cellular interaction: (NanoBRET assay (HEK293T cells)) EUB0001563a AKT1; assay type: cell-based; set-up: mode of action Negative control for Borussertib, recommended concentration 1 uM; settings: hek-293t

T2 sequence (P49674 whole entry, canonical isoform): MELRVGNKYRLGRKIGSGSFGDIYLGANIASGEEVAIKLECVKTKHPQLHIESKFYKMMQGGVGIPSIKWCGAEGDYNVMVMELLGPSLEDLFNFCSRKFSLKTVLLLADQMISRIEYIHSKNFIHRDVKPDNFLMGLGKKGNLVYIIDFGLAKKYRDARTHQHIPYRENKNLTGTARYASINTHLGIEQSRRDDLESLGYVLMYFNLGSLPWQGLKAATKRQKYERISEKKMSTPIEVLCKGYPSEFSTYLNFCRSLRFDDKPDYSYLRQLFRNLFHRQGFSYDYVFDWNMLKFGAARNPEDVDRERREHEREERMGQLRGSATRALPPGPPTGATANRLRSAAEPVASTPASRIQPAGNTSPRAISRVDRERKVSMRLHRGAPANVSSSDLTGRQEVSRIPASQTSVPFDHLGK
T1 sequence (P48730 whole entry, canonical isoform): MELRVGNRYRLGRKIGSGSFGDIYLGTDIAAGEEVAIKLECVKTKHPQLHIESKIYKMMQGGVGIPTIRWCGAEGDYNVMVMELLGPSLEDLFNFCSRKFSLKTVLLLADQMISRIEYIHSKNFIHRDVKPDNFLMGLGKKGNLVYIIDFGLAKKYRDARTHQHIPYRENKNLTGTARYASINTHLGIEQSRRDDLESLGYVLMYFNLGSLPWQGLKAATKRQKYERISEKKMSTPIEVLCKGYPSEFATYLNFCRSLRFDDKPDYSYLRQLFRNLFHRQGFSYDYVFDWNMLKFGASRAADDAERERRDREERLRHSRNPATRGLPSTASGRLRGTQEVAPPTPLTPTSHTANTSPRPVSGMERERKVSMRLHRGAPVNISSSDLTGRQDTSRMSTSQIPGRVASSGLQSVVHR
T3 sequence (O14920 whole entry): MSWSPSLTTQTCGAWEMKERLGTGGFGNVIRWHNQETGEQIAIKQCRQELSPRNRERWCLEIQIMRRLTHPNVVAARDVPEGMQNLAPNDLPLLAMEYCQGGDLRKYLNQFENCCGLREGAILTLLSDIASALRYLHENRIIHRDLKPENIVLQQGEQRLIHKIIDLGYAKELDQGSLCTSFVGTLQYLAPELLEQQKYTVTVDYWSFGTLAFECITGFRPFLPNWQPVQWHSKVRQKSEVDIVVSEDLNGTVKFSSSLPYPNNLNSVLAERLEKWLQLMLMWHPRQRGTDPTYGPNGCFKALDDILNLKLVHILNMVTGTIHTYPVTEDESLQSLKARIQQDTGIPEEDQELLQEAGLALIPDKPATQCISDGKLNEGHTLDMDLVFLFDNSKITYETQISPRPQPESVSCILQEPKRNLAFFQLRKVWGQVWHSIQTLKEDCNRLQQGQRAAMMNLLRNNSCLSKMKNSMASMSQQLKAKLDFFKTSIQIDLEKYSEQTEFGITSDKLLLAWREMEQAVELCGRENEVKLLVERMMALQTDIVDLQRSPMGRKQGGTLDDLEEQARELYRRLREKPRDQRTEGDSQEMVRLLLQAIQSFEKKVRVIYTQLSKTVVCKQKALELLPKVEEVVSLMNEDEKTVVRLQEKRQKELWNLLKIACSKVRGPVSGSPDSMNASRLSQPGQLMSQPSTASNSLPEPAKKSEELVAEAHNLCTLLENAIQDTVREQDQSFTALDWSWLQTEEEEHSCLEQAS
Chain of Serine/threonine-protein kinase SIK2 (Q9H0K1 whole entry, canonical isoform): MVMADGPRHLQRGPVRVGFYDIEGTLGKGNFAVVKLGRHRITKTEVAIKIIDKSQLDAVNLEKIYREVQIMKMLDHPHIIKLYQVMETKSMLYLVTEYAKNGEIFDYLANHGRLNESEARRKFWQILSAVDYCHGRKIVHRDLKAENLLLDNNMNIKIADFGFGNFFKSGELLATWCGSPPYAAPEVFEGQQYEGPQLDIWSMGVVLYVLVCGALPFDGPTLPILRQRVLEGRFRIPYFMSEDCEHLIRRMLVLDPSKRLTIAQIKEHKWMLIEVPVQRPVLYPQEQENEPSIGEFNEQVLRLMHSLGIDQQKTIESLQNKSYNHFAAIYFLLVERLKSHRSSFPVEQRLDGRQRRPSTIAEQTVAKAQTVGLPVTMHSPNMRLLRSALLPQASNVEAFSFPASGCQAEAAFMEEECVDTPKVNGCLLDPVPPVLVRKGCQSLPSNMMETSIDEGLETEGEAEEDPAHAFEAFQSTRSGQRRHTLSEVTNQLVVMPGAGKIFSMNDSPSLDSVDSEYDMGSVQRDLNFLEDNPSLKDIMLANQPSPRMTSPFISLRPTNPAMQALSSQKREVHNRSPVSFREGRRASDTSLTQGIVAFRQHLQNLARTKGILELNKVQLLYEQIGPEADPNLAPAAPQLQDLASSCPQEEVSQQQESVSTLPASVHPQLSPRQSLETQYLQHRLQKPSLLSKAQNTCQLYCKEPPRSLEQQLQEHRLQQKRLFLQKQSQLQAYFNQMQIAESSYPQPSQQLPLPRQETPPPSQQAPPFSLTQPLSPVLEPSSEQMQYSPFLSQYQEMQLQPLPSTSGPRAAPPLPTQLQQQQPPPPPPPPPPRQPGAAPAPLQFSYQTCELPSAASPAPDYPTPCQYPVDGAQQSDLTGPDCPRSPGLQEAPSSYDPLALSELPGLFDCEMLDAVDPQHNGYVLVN
Chain of Dual specificity protein kinase CLK2 (P49760 whole entry): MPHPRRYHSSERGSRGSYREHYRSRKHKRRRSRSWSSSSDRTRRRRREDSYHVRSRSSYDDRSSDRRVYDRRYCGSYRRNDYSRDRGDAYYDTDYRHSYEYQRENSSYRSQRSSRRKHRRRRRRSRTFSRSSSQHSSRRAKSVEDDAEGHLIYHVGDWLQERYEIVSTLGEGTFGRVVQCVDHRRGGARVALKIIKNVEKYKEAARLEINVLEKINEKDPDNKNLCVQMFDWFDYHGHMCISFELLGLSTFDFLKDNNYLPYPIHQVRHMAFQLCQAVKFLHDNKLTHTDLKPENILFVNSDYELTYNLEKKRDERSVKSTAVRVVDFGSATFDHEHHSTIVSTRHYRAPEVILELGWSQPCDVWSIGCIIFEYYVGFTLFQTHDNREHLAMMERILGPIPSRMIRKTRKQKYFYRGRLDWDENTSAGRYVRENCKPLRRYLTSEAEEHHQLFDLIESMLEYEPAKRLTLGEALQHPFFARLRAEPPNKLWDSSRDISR
Chain of Histone-arginine methyltransferase CARM1 (Q86X55 whole entry): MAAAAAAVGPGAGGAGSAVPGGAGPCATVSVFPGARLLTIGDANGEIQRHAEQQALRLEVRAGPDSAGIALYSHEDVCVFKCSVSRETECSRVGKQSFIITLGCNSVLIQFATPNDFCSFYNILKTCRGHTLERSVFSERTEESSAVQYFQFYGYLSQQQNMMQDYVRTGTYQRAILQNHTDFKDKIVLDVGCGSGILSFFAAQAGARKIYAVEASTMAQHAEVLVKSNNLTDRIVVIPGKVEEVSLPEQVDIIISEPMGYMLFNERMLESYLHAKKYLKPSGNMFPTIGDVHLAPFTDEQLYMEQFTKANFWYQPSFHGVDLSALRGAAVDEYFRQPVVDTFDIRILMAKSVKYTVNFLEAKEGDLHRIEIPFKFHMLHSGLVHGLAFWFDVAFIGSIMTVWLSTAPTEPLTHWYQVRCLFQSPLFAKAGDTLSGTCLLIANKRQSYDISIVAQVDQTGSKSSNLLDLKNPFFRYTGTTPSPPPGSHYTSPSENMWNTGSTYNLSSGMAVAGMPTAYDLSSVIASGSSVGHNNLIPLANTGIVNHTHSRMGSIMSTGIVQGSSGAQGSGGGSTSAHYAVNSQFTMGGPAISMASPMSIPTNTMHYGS
Chain of Serine/threonine-protein kinase SIK1 (P57059 whole entry): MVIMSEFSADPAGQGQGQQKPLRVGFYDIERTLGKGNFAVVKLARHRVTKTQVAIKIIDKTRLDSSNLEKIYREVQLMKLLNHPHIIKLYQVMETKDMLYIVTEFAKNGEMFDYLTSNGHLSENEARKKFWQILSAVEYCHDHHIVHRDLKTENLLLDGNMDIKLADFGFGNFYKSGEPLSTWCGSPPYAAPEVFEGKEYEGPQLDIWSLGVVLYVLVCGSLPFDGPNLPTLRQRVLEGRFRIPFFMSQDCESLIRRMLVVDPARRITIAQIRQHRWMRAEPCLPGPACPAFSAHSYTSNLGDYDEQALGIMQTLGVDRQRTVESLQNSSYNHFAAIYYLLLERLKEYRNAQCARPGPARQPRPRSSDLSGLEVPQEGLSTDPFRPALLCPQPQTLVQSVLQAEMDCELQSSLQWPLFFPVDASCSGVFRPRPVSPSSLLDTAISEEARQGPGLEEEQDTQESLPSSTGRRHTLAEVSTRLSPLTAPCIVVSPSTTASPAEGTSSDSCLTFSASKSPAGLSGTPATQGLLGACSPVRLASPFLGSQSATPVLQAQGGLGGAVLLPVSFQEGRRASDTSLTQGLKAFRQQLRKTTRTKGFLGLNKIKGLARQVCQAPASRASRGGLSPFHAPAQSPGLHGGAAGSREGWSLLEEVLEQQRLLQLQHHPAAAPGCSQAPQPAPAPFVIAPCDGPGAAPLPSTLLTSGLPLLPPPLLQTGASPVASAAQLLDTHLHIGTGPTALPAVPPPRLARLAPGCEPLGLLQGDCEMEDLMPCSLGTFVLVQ
Chain of Casein kinase I isoform alpha (P48729 whole entry, canonical isoform): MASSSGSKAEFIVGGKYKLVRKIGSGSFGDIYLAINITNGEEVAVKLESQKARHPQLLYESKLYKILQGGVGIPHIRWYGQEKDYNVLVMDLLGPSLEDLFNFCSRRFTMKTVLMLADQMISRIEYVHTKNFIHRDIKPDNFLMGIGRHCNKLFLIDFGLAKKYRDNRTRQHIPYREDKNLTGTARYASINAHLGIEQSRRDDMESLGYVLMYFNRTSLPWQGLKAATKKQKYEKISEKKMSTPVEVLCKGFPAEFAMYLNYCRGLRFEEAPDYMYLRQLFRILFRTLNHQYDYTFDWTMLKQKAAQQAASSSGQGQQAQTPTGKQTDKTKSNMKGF

In the case of `C=CC(=O)Nc1ccc(C(=O)Nc2n[nH]c3c2CN(C(=O)N[C@H](CN(C)C)c2ccccc2)C3(C)C)cc1`, the IC50 [1] is reported as 62.5 nM.
`CN(C)CCCOc1ccc(-c2cc(NCCCn3cccn3)nc(S(C)(=O)=O)n2)cc1` was tested, and the EC50 [2] was 289 nM and the EC50 [3] was 228 nM.
Work on `COc1cc(N(C)c2ccnc3ccc(C(F)(F)F)cc23)cc(OC)c1OC` yielded an IC50 [4] greater than 5 µM.
`CC(C)c1cc(Nc2nc(N3CCC[C@H](N)C3)ncc2C(N)=O)cc(C(C)C)n1` showed an IC50 [5] of 29 nM.
Compound `Cn1cc(-c2ccc3occ(-c4cccc(-c5ccncc5)c4)c3n2)cn1` has a Ki [6] of 1700 nM, a Ki [7] of 23 nM and a Ki [8] of 6.58 µM.
In the case of `COc1cc(Nc2nc(C)cc(-c3cnn4nc(OC)ccc34)n2)cc(C(F)(F)F)c1`, the IC50 [9] is reported as greater than 10 µM and the IC50 [10] is reported as greater than 10 µM.
Compound `COCCN1CCC(c2cc(CN(C)C(=O)c3cccc(Oc4ccccc4)c3)ccn2)CC1` has an IC50 [11] greater than 10 µM.
With `CN(c1ncccc1CNc1ccnc(-c2cc3cc(Cl)ccc3[nH]2)n1)S(C)(=O)=O` the IC50 [12] was greater than 50 µM and the IC50 [13] was greater than 50 µM.
`Cc1cc(CN)cc(C)c1-c1ncn(C)c1-c1cncn1C` showed an IC50 [14] greater than 10 µM.
Compound `CN1CCN(C(=O)c2ccc3cc2OCCOCCNc2ccn4ncc-3c4n2)CC1` has an IC50 [15] greater than 45 µM.
`CCc1ccc(-c2ncn(CC3(F)CCN(C)CC3)c2-c2ccnc3[nH]ccc23)nc1` was tested, and the IC50 [16] was greater than 50 µM and the IC50 [17] was greater than 50 µM.
Work on `CN(C)c1ncc2cc(-c3ccc(-c4ncccc4F)cc3Cl)c(=O)n(C[C@H]3OC[C@H](N)CO3)c2n1` yielded an IC50 [18] of 14 µM, an IC50 [19] of 14 µM and an IC50 [20] of 14 µM.
Work on `CN1CCC(F)(Cn2cnc(-c3ccc(F)cn3)c2-c2ccnc3[nH]ccc23)CC1` yielded an IC50 [21] of 220 nM, an IC50 [22] of 3.5 µM and an IC50 [23] of 47 nM.
`CN(C)C(=O)c1sc2nc(N3CCC(S(C)(=O)=O)CC3)cc(C(F)(F)F)c2c1N` [BI-5026] was tested, and the IC50 [24] was greater than 20 µM.
`CCC(F)(F)c1cc(N2CCC(S(C)(=O)=O)CC2)nc2sc(C(N)=O)c(N)c12` [BI-605906] gave an EC50 [25] of 900 nM.
Work on `COCC(=O)NC/C=C/c1ccc2ncnc(Nc3ccc(Oc4ccc(C)nc4)c(C)c3)c2c1` [CP-724714] yielded an IC50 [26] of 32 nM.
`C=CC(=O)Nc1ccc2[nH]c(=O)n(C3CCN(Cc4ccc(-c5ccc6c(c5)NC(=O)CO6)cc4)CC3)c2c1` [RL2578] showed an IC50 [27] of 8.3 µM and an IC50 [28] of 1900 nM.
